Laboratory results from patent US20030153051A1, “Cholesterol oxidase” (priority 1998, published 2003).
Entries after “also recorded” stand apart in the source; their conditions may differ.

Experiments:
[1] = system: cholesterol oxidase derived from Brevibacterium sp.; experiment: Effect of organic solvents on enzyme activity (Brevibacterium sp.); assay type: biochemical; conditions: organic solvent 50% by volume of reaction solution; pH 7, 30° C.; no solvent = 1
[2] = system: cholesterol oxidase derived from Nocardia erythropolis; experiment: Effect of organic solvents on enzyme activity (Nocardia erythropolis); assay type: biochemical; conditions: organic solvent 50% by volume of reaction solution; pH 7, 30° C.; no solvent = 1
[3] = system: cholesterol oxidase derived from ST-200 strain; experiment: Effect of organic solvents on enzyme activity (ST-200); assay type: biochemical, Pseudomonas sp. ST-200; conditions: for Relative activity, ST-200: organic solvent 50% by volume of reaction solution, pH 7, 30° C., no solvent = 1; for Reaction velocity in solvent compared to cholesterol oxidases of Nocardia erythropolis, Pseudomonas sp., Streptomyces sp., Brevibacterium sp. (in words): organic solvent 50% by volume, 30° C., pH 7
[4] = system: cholesterol oxidase derived from Streptomyces sp.; experiment: Effect of organic solvents on enzyme activity (Streptomyces sp.); assay type: biochemical; conditions: organic solvent 50% by volume of reaction solution; pH 7, 30° C.; no solvent = 1
[5] = system: cholesterol oxidase derived from Pseudomonas sp.; experiment: Effect of organic solvents on enzyme activity (Pseudomonas sp.); assay type: biochemical; conditions: organic solvent 50% by volume of reaction solution; pH 7, 30° C.; no solvent = 1
[6] = system: cholesterol oxidase derived from ST-200 strain; experiment: Effect of metal ions and the like on enzyme activity; assay type: biochemical, Pseudomonas sp. ST-200; conditions: for Relative activity (%): pH 7; for Inhibition of enzyme activity (in words): 1 mM
[7] = system: cholesterol oxidase derived from Pseudomonas sp. ST-200 (FERM BP-6661); experiment: Effect of metal ions and the like (additives) on enzyme activity; assay type: biochemical; conditions: additive at 1 mM; activity without additive = 100; cholesterol substrate, 30° C., pH 7
Protocol: Effect of metal ions and the like on the activity of the enzyme obtained in Example 1 was studied. Enzyme activity was measured as described in Test Example 1 at 30° C. at pH 7 after adding various metal compounds, to a final concentration of […], to the reaction system.

[8] = system: cholesterol oxidase derived from ST-200 strain; experiment: Substrate specificity of enzyme; assay type: biochemical, Pseudomonas sp. ST-200; conditions: for Relative activity (%): various substrates, 30° C., pH 7, enzyme activity with cholesterol set to be 100
[9] = system: cholesterol oxidase derived from Streptomyces sp.; experiment: Enzyme kinetics (Km, Vmax) of cholesterol oxidation, Lineweaver-Burk; assay type: biochemical; conditions: 30° C., pH 7
Protocol: (§1) Enzyme activity was measured as described in Test Example 1 at 30° C. at pH 7.

[10] = system: cholesterol oxidase derived from Pseudomonas sp. (comparison); experiment: as above; assay type: biochemical; conditions: 30° C., pH 7
Protocol: as §1

[11] = system: cholesterol oxidase derived from Pseudomonas sp. ST-200 (FERM BP-6661); experiment: as above; assay type: biochemical; conditions: 30° C., pH 7, 0 to 1 mM cholesterol
Protocol: as §1

[12] = system: cholesterol oxidase derived from Brevibacterium sp.; experiment: as above; assay type: biochemical; conditions: 30° C., pH 7
Protocol: as §1

[13] = system: cholesterol oxidase derived from Nocardia erythropolis; experiment: as above; assay type: biochemical; conditions: 30° C., pH 7
Protocol: as §1

[14] = additive 1 mM, 30° C., cholesterol as substrate, activity without additive set to be 100
[15] = 0.03% Triton X-100, 0 to 1 mM cholesterol
[16] = head 0.03% Triton X-100 (0.3% in text)

## Cc1ccccc1 [Toluene]
[1]
  Relative activity, Brevibacterium sp.: 0.5
[2]
  Relative activity, Nocardia erythropolis: 1.7
[3]
  Effect of organic solvent on reaction velocity (in words): increased
  Relative activity, ST-200: 3.5
  Reaction velocity in solvent compared to cholesterol oxidases of Nocardia erythropolis, Pseudomonas sp., Streptomyces sp., Brevibacterium sp. (in words): higher reaction velocity
[4]
  Relative activity, Streptomyces sp.: 1.2
[5]
  Relative activity, Pseudomonas sp.: 1.4

## Oc1cccc2cccnc12 [8-hydroxyquinoline, reference compound]
[6]
  Relative activity (%): 85%

## c1cnc2c(c1)ccc1cccnc12 [o-phenanthroline]
[7]
  Relative activity: 92%

## C[C@]12CC[C@H](O)C[C@@H]1CC[C@@H]1[C@@H]2CC[C@]2(C)C(=O)CC[C@@H]12 [Epiandrosterone, 5α-androstan-3β-ol-17-one]
[8]
  Relative activity (%): 10%

## CC(C)CCC[C@@H](C)[C@H]1CC[C@H]2[C@@H]3CC=C4C[C@H](O)CC[C@]4(C)[C@H]3CC[C@]12C [Epicholesterol, Cholest-5-en-3α-ol]
[8]
  Action of the enzyme on the substrate (in words): does not act on; also recorded: did not act on
  Relative activity (%): 0%

## c1ccccc1 [Benzene]
[1]
  Relative activity, Brevibacterium sp.: 0.5
[2]
  Relative activity, Nocardia erythropolis: 1.5
[3]
  Effect of organic solvent on reaction velocity (in words): increased
  Relative activity, ST-200: 3.0
  Reaction velocity in solvent compared to cholesterol oxidases of Nocardia erythropolis, Pseudomonas sp., Streptomyces sp., Brevibacterium sp. (in words): higher reaction velocity
[4]
  Relative activity, Streptomyces sp.: 0.9
[5]
  Relative activity, Pseudomonas sp.: 1.3

## O=S(=O)([O-])[O-].[Cu+2] [Copper sulfate]
[6]; [14]
  Relative activity (%): 105%

## Manganese chloride
[6]; [14]
  Relative activity (%): 92%

## C[C@]12CC[C@H](O)CC1=CC[C@@H]1[C@@H]2CC[C@]2(C)C(=O)CC[C@@H]12 [Dehyoepiandrosterone, 3β-Hydroxyandrost-5-en-17-one]
[8]
  Relative activity (%): 16%

## c1ccc(Cc2ccccc2)cc1 [Diphenylmethane]
[1]
  Relative activity, Brevibacterium sp.: 0.8
[2]
  Relative activity, Nocardia erythropolis: 1.6
[3]
  Effect of organic solvent on reaction velocity (in words): increased
  Relative activity, ST-200: 3.1
  Reaction velocity in solvent compared to cholesterol oxidases of Nocardia erythropolis, Pseudomonas sp., Streptomyces sp., Brevibacterium sp. (in words): higher reaction velocity
[4]
  Relative activity, Streptomyces sp.: 1.0
[5]
  Relative activity, Pseudomonas sp.: 1.5

## CC(C)CCC[C@@H](C)[C@H]1CC[C@H]2[C@@H]3CC=C4C[C@@H](O)CC[C@]4(C)[C@H]3CC[C@]12C [Cholesterol, cholest-5-en-3β-ol]
[8]
  Action of the enzyme on the substrate (in words): strongly oxidized
  Relative activity (%): 100%
[9]; [15]
  Km: 16.3 µM
  Vmax: 15.8 µmol/min/mg
[9]; [16]
  Km: 160 µM
  Vmax: 15.3 µmol/min/mg
[10]; [15]
  Km: 9.41 µM
  Vmax: 11.0 µmol/min/mg
[10]; [16]
  Km: 76.1 µM
  Vmax: 10.3 µmol/min/mg
[11]; 0.03% Triton X-100
  Km: 4.04 µM
  Vmax: 13.1 µmol/min/mg
[11]; [16]
  Km: 52.2 µM
  Vmax: 12.1 µmol/min/mg
[12]; [15]
  Km: 63.3 µM
  Vmax: 12.0 µmol/min/mg
[12]; [16]
  Km: 925 µM
  Vmax: 11.3 µmol/min/mg
[13]; [15]
  Km: 5.14 µM
  Vmax: 9.8 µmol/min/mg
[13]; [16]
  Km: 44 µM
  Vmax: 6.8 µmol/min/mg

## CCCc1ccccc1 [Propylbenzene]
[1]
  Relative activity, Brevibacterium sp.: 0.8
[2]
  Relative activity, Nocardia erythropolis: 1.6
[3]
  Effect of organic solvent on reaction velocity (in words): increased
  Relative activity, ST-200: 3.2
  Reaction velocity in solvent compared to cholesterol oxidases of Nocardia erythropolis, Pseudomonas sp., Streptomyces sp., Brevibacterium sp. (in words): higher reaction velocity
[4]
  Relative activity, Streptomyces sp.: 1.1
[5]
  Relative activity, Pseudomonas sp.: 1.3

## O=[N+]([O-])[O-].[Ag+] [Silver nitrate]
[6]; [14]
  Relative activity (%): 2%
[6]; cholesterol as substrate
  Inhibition of enzyme activity (in words): inhibited; also recorded: strongly inhibited

## CC(C)[C@@H](C)C=C[C@@H](C)[C@H]1CC[C@H]2C3=CC=C4C[C@@H](O)CC[C@]4(C)[C@H]3CC[C@]12C [Ergosterol, Ergosta-5,7,22-trien-3β-ol]
[8]
  Relative activity (%): 20%

## [Cl-].[Cl-].[Zn+2] [Zinc chloride]
[6]
  Relative activity (%): 92%

## ClC(Cl)Cl [Chloroform]
[1]
  Relative activity, Brevibacterium sp.: <0.1
[2]
  Relative activity, Nocardia erythropolis: 0.3
[3]
  Relative activity, ST-200: 0.2
[4]
  Relative activity, Streptomyces sp.: 0.1
[5]
  Relative activity, Pseudomonas sp.: 0.1

## Iron sulfate
[6]; [14]
  Relative activity (%): 94%

## CC(C)CCC[C@@H](C)[C@H]1CC[C@H]2[C@@H]3CC[C@H]4C[C@@H](O)CC[C@]4(C)[C@H]3CC[C@]12C [β-cholestanol]
[8]
  Action of the enzyme on the substrate (in words): strongly oxidized
  Relative activity (%): 69%

## c1ccc(-c2ccccn2)nc1 [α,α-dipyridyl]
[7]
  Relative activity: 98%

## [Cl][Hg][Cl] [Mercury chloride]
[6]; [14]
  Relative activity (%): 0%
[6]; cholesterol as substrate
  Inhibition of enzyme activity (in words): inhibited; also recorded: strongly inhibited

## C1CCCCCCC1 [Cyclooctane]
[1]
  Relative activity, Brevibacterium sp.: 0.2
[2]
  Relative activity, Nocardia erythropolis: 1.1
[3]
  Effect of organic solvent on reaction velocity (in words): increased
  Relative activity, ST-200: 1.4
  Reaction velocity in solvent compared to cholesterol oxidases of Nocardia erythropolis, Pseudomonas sp., Streptomyces sp., Brevibacterium sp. (in words): higher reaction velocity
[4]
  Relative activity, Streptomyces sp.: 0.4
[5]
  Relative activity, Pseudomonas sp.: 0.8

## c1ccc(-c2ccccn2)nc1 [α,α-dipyridyl, reference compound]
[6]
  Relative activity (%): 98%

## O=C(O)CN(CCN(CC(=O)O)CC(=O)O)CC(=O)O [EDTA]
[7]
  Relative activity: 88%

## [Cl][Ni][Cl] [Nickel chloride]
[6]
  Relative activity (%): 90%

## CC[C@H](CC[C@@H](C)[C@H]1CC[C@H]2[C@@H]3CC=C4C[C@@H](O)CC[C@]4(C)[C@H]3CC[C@]12C)C(C)C [β-sitosterol, sitost-5-en-3β-ol]
[8]
  Action of the enzyme on the substrate (in words): strongly oxidized
  Relative activity (%): 84%

## Cc1ccc(C)cc1 [Paraxylene]
[1]
  Relative activity, Brevibacterium sp.: 0.7
[2]
  Relative activity, Nocardia erythropolis: 1.6
[3]
  Effect of organic solvent on reaction velocity (in words): increased
  Relative activity, ST-200: 3.4
  Reaction velocity in solvent compared to cholesterol oxidases of Nocardia erythropolis, Pseudomonas sp., Streptomyces sp., Brevibacterium sp. (in words): higher reaction velocity
[4]
  Relative activity, Streptomyces sp.: 1.1
[5]
  Relative activity, Pseudomonas sp.: 1.5

## [Cl-].[Cl-].[Mg+2] [Magnesium chloride]
[6]
  Relative activity (%): 102%

## CC(=O)[C@H]1CC[C@H]2[C@@H]3CC=C4C[C@@H](O)CC[C@]4(C)[C@H]3CC[C@]12C [Pregnenolone, 3β-Hydroxypregn-5-en-20-one]
[8]
  Relative activity (%): 32%

## [Ca+2].[Cl-].[Cl-] [Calcium chloride]
[6]
  Relative activity (%): 106%
